ChEMBL document CHEMBL1201862, “PubChem BioAssay data set” (2004)
Active and inactive are the calls of the source.

Columns and labels:
[1] = molecular target: Photoreceptor-specific nuclear receptor (Homo sapiens, UniProt Q9Y5X4); type: functional, cell-based;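 note: CHO-S cells with Gal4-NCOR and VP16-NR2E3 two-hybrid luciferase reporter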
Interleukin-8 [2] = molecular target: T1, Interleukin-8 (Homo sapiens, UniProt P10145); assay: Dose Response confirmation of uHTS small molecule hits for cystic fibrosis induced NFkb Inhibitors in a PAF-induced IL8 counterscreen.; type: functional; details: read-out: IC50_Mean
T1 sequence (P10145 whole entry): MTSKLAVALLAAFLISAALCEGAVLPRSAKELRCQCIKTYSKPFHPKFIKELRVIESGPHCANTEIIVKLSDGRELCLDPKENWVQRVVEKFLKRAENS

Interleukin-8 [3] = molecular target: T1, Interleukin-8; assay: Dose Response confirmation of uHTS small molecule hits for cystic fibrosis induced NFkb Inhibitors in a TNFa-induced IL8 counterscreen.; type: functional; details: read-out: IC50_Mean
[4] = cAMP pathway inhibition in counterscreen cell line – TR-FRET cAMP detection, counter-screen for MC4R biased antagonist project, dose response (AID 602305); type: functional, cell-based;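 note: U2OS cells stimulated with forskolin near its EC80 as the cAMP inducer; potency is for inhibition of forskolin-stimulated cAMP signaling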
Melanocortin receptor 4 = Melanocortin receptor 4 (Homo sapiens, UniProt P32245); assay: inhibitors of MC4R cAMP signaling – cell-based, TR-FRET, biased antagonists, dose response (AID 602298); type: functional;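 note: antagonist potency against agonist-stimulated cAMP production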
[5] = molecular target: T2, Corticotropin-releasing factor receptor 2/Corticotropin-releasing factor-binding protein (Homo sapiens, UniProt P24387+Q13324); assay: activators of CRF receptor 2 with binding protein – uHTS hits, confirmation (AID 602473); type: functional; details: read-out: EC50_Mean
T2 sequence (Q13324 whole entry): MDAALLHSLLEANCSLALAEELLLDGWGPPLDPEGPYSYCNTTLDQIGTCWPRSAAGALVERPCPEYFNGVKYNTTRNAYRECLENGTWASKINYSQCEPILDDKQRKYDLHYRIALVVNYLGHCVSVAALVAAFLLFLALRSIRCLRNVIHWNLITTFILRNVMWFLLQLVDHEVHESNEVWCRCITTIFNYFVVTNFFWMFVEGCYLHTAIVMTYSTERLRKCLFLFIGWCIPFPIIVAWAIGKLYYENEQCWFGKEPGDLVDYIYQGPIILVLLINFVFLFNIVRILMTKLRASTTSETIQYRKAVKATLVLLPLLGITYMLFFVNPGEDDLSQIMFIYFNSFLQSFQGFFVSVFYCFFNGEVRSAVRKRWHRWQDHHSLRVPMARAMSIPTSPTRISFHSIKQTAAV
T2 sequence (P24387 whole entry): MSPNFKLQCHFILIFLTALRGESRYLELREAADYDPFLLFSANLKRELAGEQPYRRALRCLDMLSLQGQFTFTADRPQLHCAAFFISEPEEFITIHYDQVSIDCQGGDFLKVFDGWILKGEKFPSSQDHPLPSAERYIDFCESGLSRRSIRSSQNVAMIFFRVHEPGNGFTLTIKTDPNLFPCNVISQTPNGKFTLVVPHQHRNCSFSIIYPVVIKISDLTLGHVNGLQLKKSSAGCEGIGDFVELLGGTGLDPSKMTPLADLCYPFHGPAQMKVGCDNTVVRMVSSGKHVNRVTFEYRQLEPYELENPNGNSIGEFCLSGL

[6] = blockers of CRF-binding protein–CRF-R2 complex – cell-based, uHTS hits, 384-well, dose response (AID 651639); type: functional, Homo sapiens; details: read-out: IC50_Mean
[7] = test system: Streptococcus sp. 'group A'; assay: Streptococcus pyogenes SK(-)GAS viability under kanamycin – luminescence, BacTiterGlo, confirmation, counter-screen for streptokinase expression inhibitor project, dose response (AID 1900); type: functional, organism-based
[8] = NIH-3T3 fibroblast cytotoxicity, dose response, cytotoxicity control, cell-based, fluorescence, Alamar Blue, secondary assay (AID 2327); type: functional;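 note: NIH-3T3 mouse fibroblasts cultured with fluconazole at 8 µg/mL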
Streptococcus = assay: GAS UMAA2166 growth inhibition – luminescence, BacTiterGlo, counter-screen for streptokinase expression inhibitor project, dose response (AID 1915); type: functional, organism-based;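 note: potency for reduction of bacterial viability or growth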
Cysteine protease ATG4B = molecular target: T3, Cysteine protease ATG4B (Homo sapiens, UniProt Q9Y4P1); type: functional;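 note: Fluorescence-based dose-response confirmation assay measuring inhibition of ATG4B activity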
T3 sequence (Q9Y4P1 whole entry): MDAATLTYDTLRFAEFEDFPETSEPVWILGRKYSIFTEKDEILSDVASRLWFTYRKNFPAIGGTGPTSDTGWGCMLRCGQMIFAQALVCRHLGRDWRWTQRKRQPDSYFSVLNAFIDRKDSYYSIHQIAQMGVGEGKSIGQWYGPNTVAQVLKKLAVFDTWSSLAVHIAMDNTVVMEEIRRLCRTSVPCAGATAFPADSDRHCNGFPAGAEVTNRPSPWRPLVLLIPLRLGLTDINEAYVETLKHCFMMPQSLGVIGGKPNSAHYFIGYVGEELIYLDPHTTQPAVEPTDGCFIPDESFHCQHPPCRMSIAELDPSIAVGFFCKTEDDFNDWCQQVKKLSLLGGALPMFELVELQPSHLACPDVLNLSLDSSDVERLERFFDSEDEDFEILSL

Streptokinase A = molecular target: T4, Streptokinase A (Streptococcus pyogenes serotype M1, UniProt P10520); assay: viability-normalized secreted streptokinase activity reduction – plasminogen activation absorbance, OD405, dose response (AID 1914); type: functional, Streptococcus pyogenes M1 GAS;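 note: secreted streptokinase activity via plasminogen activation per viability signal from cell pellet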
T4 sequence (P10520 whole entry): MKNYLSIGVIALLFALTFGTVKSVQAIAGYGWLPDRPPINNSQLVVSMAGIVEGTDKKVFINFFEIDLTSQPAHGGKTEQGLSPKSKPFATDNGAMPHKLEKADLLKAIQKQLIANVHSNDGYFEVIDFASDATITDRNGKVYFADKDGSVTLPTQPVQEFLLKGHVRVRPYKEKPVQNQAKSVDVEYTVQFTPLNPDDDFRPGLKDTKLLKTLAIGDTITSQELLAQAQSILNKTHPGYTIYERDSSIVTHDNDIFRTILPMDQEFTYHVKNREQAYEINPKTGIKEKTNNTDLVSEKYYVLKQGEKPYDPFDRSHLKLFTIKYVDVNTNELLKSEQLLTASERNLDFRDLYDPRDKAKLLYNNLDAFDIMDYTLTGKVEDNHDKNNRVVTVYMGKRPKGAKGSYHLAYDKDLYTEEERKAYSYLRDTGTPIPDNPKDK

[9] = fluconazole-exposed Candida albicans growth modulators – fluorescence, retest, confirmation (AID 2467); type: functional, cell-based
[10] = molecular target: T2, Corticotropin-releasing factor receptor 2/Corticotropin-releasing factor-binding protein; assay: Dose Response confirmation of uHTS hits for small molecule antagonists of the CRF-binding protein and CRF-R2 receptor complex.; type: functional; details: read-out: IC50_Mean
Phospholipase A2 = Phospholipase A2 (Homo sapiens, UniProt P04054); type: functional;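 note: confirmatory dose-response counterscreen on phospholipase A2, testing hits that came from an ultra-high-throughput screen for ATG4B inhibitors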
SN12K1 = assay: cells; type: functional; details: Homo sapiens
P388/ADR = assay: cells; type: functional; details: Mus musculus, P388/ADR
P388 = assay: cells; type: functional; details: Mus musculus
[11] = molecular target: Heat shock protein HSP 90-alpha (Homo sapiens, UniProt P07900); type: functional, organism-based
[12] = molecular target: T5, Carboxy-terminal domain RNA polymerase II polypeptide A small phosphatase 1 (Homo sapiens, UniProt Q9GZU7); assay: CTDSP1 inhibitors, concentration-response, biochemical, absorbance readout, ultra-high-throughput screen actives (AID 540297); type: functional
T5 sequence (Q9GZU7 whole entry): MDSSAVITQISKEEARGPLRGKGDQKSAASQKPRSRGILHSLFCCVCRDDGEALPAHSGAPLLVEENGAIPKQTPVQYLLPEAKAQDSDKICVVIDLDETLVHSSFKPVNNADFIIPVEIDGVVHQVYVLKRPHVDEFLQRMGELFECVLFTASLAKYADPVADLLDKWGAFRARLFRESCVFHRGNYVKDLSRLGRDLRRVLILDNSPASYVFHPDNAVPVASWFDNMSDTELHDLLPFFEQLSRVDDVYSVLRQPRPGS

Leucine aminopeptidase = molecular target: T6, Leucine aminopeptidase (Plasmodium falciparum 3D7, UniProt Q8IL11); assay: P. falciparum M17LAP inhibitors, primary screen, biochemical, fluorogenic H-Leu-NHMec substrate, 1536-well (AID 1619); type: functional
T6 sequence (Q8IL11 whole entry): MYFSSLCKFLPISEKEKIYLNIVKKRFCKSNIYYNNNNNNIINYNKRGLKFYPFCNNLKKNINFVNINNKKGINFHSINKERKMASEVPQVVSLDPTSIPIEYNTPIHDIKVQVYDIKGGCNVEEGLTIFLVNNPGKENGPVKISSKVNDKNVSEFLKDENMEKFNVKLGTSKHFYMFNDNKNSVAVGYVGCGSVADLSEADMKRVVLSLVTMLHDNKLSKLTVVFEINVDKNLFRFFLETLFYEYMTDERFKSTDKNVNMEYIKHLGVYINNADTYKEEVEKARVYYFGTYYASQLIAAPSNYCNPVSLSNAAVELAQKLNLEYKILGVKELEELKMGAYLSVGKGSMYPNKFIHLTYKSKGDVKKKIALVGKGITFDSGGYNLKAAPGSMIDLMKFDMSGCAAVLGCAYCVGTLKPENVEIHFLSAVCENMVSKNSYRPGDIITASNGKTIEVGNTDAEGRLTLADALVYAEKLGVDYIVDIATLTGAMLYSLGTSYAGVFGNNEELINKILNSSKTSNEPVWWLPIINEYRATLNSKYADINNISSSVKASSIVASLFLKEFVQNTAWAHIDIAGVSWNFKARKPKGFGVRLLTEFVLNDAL

Phospholipase A2, sequence (P04054 whole entry): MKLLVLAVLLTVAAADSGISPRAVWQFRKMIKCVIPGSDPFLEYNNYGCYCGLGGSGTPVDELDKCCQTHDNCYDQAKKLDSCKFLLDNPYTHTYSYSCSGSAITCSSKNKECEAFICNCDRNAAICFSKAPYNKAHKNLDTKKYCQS
Melanocortin receptor 4, sequence (P32245 whole entry): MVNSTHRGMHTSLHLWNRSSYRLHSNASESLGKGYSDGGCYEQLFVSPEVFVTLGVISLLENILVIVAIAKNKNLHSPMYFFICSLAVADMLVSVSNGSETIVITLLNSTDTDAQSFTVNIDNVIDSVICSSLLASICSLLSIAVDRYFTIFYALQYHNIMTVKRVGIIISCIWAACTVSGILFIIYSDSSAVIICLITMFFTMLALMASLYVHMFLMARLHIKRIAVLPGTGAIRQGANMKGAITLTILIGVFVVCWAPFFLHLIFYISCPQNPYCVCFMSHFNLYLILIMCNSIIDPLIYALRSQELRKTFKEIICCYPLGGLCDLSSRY
Photoreceptor-specific nuclear receptor, sequence (Q9Y5X4 whole entry, the tested form may be a part): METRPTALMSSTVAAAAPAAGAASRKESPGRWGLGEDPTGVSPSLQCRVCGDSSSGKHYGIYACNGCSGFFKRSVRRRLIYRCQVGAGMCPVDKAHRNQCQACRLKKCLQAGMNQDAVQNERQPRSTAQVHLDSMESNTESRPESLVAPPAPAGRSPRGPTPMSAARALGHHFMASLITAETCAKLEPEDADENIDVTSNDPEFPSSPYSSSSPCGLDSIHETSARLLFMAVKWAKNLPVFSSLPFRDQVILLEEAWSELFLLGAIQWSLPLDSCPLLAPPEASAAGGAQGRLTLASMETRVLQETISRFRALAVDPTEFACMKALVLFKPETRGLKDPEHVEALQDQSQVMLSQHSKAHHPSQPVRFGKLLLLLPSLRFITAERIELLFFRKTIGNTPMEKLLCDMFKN

CCC1(O)C(=O)OCc2c1cc1n(c2=O)Cc2cc3cc(O)ccc3nc2-1 (configuration not stated)
IC50 [1]: 4.21 µM (active) | IC50 (Interleukin-8 [2]): 3 µM (active) | IC50 (Interleukin-8 [3]): 40.5 µM (inactive)

CSCCC(NC(=O)c1ccc([N+](=O)[O-])cc1Cl)C(=O)OC(C)C(=O)NCc1ccco1 (configuration not stated)
IC50 [4]: 47.4 µM (inactive) | IC50 (Melanocortin receptor 4): > 64.6 µM (inactive)

CC(C)C(Sc1nc(-c2ccccc2)cc(-c2ccccc2)c1C#N)C(=O)O (configuration not stated)
EC50 [5]: 35.7 µM (active) | IC50 [6]: > 20 µM (inactive) | EC50 [7]: 7.77 µM (active) | EC50 [8]: 26.8 µM (active) | EC50 (Streptococcus): 9.19 µM (active) | IC50 (Cysteine protease ATG4B): 11.3 µM (active) | EC50 (Streptokinase A): 10.1 µM (active) | EC50 [9]: 2.61 µM (active) | IC50 [10]: 6.76 µM (active) | IC50 (Phospholipase A2): 9.87 µM (active)

Cc1ccc(/N=C/c2cc3c(cc2O)OC(N)=C(C#N)C3c2ccccc2)cc1 (configuration not stated)
IC50 (Interleukin-8 [2]): 5.76 µM (active) | IC50 (Interleukin-8 [3]): > 79 µM (inactive)

O=[N+]([O-])c1cc(C(F)(F)F)cc2c1SC1=Nc3ccccc3CN12
GI50 (SN12K1): > 100 µM (inactive) | GI50 (P388/ADR): > 100 µM (inactive) | GI50 (P388): > 100 µM (inactive)

COc1ccc(/C=C/C(=O)c2cc(Br)ccc(=O)c2O)cc1
AC50 [11]: 4.22 µM (active)

O=C(CC12CC3CC(CC(C3)C1)C2)Nc1nncs1
IC50 (Interleukin-8 [2]): 9.42 µM (active) | IC50 (Interleukin-8 [3]): 3.19 µM (active)

O=C(O)COc1ccccc1/C=C1\SC(=S)N(/N=C/c2ccccc2O)C1=O
IC50 (Cysteine protease ATG4B): 27.1 µM (inactive) | IC50 [12]: 8.53 µM (active) | IC50 (Leucine aminopeptidase): 21.3 µM (active) | IC50 (Phospholipase A2): 32.1 µM (inactive)
